Data from PubChem BioAssay AID244 (DTP/NCI, 2004).
“And” between values parts separate entries of the source, which are not always exact repeats. Identical values can stand only once. Results filed as inconclusive are left out. Rule for the calls: active = survival T/C of 150% or more; inactive = T/C below 125% in these data.

Test system: CD2F1 mice, Lymphoma 8 ip, survival T/C
Experiment: NCI In Vivo Anticancer Drug Screen. Data for tumor model Lymphoma 8 (intraperitoneal) in CD2F1 (CDF1) mice
Conditions: higher = longer survival
Description: The antitumor activity of compounds was measured in mice bearing transplantable tumors. Survival or tumor size were measured and the results are expressed as the measurement made in the treated group (T) divided by the measurement made in the vehicle treated control group (C). The tumor model used in this assay is Lymphoma 8 (intraperitoneal) in CD2F1 (CDF1) mice

[1] = endpoint: median survival time, dose: 60.0 mg/kg/injection, schedule: Q04DX002 (ip), vehicle: saline

Measured: T/C

CC/C(=C(/CC)c1ccc(O)cc1)c1ccc(O)cc1
inactive: endpoint: survival time, mean or median, dose: 12.5 mg/kg/injection, schedule: Q01DX010 (sc), vehicle: steriod suspending solution 90 % of control | endpoint: survival time, mean or median, dose: 25.0 mg/kg/injection, schedule: Q01DX010 (sc), vehicle: steriod suspending solution 90 % of control | endpoint: survival time, mean or median, dose: 50.0 mg/kg/injection, schedule: Q01DX010 (sc), vehicle: steriod suspending solution 90 % of control and 95 % of control | endpoint: survival time, mean or median, dose: 100.0 mg/kg/injection, schedule: Q01DX010 (sc), vehicle: steriod suspending solution 90 % of control

C[C@]12C=CC(=O)C=C1CC[C@@H]1[C@@H]2C(=O)C[C@@]2(C)[C@H]1CC[C@]2(O)C(=O)CO
inactive: endpoint: median survival time, dose: 12.5 mg/kg/injection, schedule: Q01DX005 (sc), vehicle: steriod suspending solution 105 % of control and 107 % of control and 108 % of control | endpoint: median survival time, dose: 25.0 mg/kg/injection, schedule: Q01DX005 (sc), vehicle: steriod suspending solution 96 % of control and 104 % of control and 108 % of control | endpoint: median survival time, dose: 50.0 mg/kg/injection, schedule: Q01DX005 (sc), vehicle: steriod suspending solution 96 % of control and 99 % of control and 100 % of control | endpoint: median survival time, dose: 100.0 mg/kg/injection, schedule: Q01DX005 (sc), vehicle: steriod suspending solution 100 % of control and 103 % of control and 104 % of control | endpoint: median survival time, dose: 200.0 mg/kg/injection, schedule: Q01DX005 (sc), vehicle: steriod suspending solution 111 % of control and 112 % of control

CN1C(=O)C=CC1=O
inactive: endpoint: median survival time, dose: 0.5 mg/kg/injection, schedule: Q01DX009 (ip), vehicle: saline 97 % of control and 102 % of control | endpoint: median survival time, dose: 1.0 mg/kg/injection, schedule: Q01DX009 (ip), vehicle: saline 102 % of control and 103 % of control | endpoint: median survival time, dose: 2.0 mg/kg/injection, schedule: Q01DX009 (ip), vehicle: saline 94 % of control and 100 % of control | endpoint: median survival time, dose: 4.0 mg/kg/injection, schedule: Q01DX009 (ip), vehicle: saline 94 % of control

S=c1nc[nH]c2nc[nH]c12
inactive: endpoint: median survival time, dose: 60.0 mg/kg/injection, schedule: Q01DX002 (ip), vehicle: saline 96 % of control | [1] 107 % of control | endpoint: median survival time, dose: 90.0 mg/kg/injection, schedule: Q01DX002 (ip), vehicle: saline 93 % of control | endpoint: median survival time, dose: 90.0 mg/kg/injection, schedule: Q04DX002 (ip), vehicle: saline 107 % of control | endpoint: median survival time, dose: 135.0 mg/kg/injection, schedule: Q01DX002 (ip), vehicle: saline 103 % of control

N=[N+]=CC(=O)CCC(NC(=O)C(CCC(=O)C=[N+]=N)NC(=O)CCC(N)C(=O)O)C(=O)O (stereo not drawn)
active: endpoint: median survival time, dose: 10.0 mg/kg/injection, schedule: Q04DX002 (ip), vehicle: saline 169 % of control | endpoint: median survival time, dose: 20.0 mg/kg/injection, schedule: Q04DX002 (ip), vehicle: saline 153 % of control | endpoint: median survival time, dose: 40.0 mg/kg/injection, schedule: Q04DX002 (ip), vehicle: saline 180 % of control | endpoint: median survival time, dose: 40.0 mg/kg/injection, schedule: Q04DX003 (ip), vehicle: saline 169 % of control | [1] 180 % of control | endpoint: median survival time, dose: 60.0 mg/kg/injection, schedule: Q04DX003 (ip), vehicle: saline 176 % of control | endpoint: median survival time, dose: 80.0 mg/kg/injection, schedule: Q01DX006 (ip), vehicle: saline 171 % of control | endpoint: median survival time, dose: 80.0 mg/kg/injection, schedule: Q04DX003 (ip), vehicle: saline 188 % of control
inactive: endpoint: median survival time, dose: 0.31 mg/kg/injection, schedule: Q04DX002 (ip), vehicle: saline 111 % of control | endpoint: median survival time, dose: 0.63 mg/kg/injection, schedule: Q04DX002 (ip), vehicle: saline 107 % of control | endpoint: median survival time, dose: 1.25 mg/kg/injection, schedule: Q04DX002 (ip), vehicle: saline 115 % of control | endpoint: median survival time, dose: 2.5 mg/kg/injection, schedule: Q01DX006 (ip), vehicle: saline 121 % of control | endpoint: median survival time, dose: 10.0 mg/kg/injection, schedule: Q01DX006 (ip), vehicle: saline 121 % of control | endpoint: median survival time, dose: 20.0 mg/kg/injection, schedule: Q01DX001 (ip), vehicle: saline 107 % of control | endpoint: median survival time, dose: 60.0 mg/kg/injection, schedule: Q01DX001 (ip), vehicle: saline 107 % of control
